Reference: article PMC11347546, “A radioligand for in vitro autoradiography of CSF1R in post-mortem CNS tissues” (EJNMMI Research, 2024)
Where “and” joins values, the source holds several entries; their conditions need not be identical. Identical values can stand only once. Like-named read-outs stand apart in the source and are kept apart here. Each block holds one molecule with its values, some of them ahead of it.

What was measured:
CSF1R [1] = target: T1, CSF1R (Mus musculus, UniProt P09581); test: Ex vivo brain uptake of [^11C]1 in LPS-induced murine model of neuroinflammation, baseline and CPPC blocking; design: species or system CD1 mice
T1 construct: from tissue; host or cells: whole brain of male CD1 mice, radiotracer injected in vivo, brains counted ex vivo
T1 sequence (P09581 20-977): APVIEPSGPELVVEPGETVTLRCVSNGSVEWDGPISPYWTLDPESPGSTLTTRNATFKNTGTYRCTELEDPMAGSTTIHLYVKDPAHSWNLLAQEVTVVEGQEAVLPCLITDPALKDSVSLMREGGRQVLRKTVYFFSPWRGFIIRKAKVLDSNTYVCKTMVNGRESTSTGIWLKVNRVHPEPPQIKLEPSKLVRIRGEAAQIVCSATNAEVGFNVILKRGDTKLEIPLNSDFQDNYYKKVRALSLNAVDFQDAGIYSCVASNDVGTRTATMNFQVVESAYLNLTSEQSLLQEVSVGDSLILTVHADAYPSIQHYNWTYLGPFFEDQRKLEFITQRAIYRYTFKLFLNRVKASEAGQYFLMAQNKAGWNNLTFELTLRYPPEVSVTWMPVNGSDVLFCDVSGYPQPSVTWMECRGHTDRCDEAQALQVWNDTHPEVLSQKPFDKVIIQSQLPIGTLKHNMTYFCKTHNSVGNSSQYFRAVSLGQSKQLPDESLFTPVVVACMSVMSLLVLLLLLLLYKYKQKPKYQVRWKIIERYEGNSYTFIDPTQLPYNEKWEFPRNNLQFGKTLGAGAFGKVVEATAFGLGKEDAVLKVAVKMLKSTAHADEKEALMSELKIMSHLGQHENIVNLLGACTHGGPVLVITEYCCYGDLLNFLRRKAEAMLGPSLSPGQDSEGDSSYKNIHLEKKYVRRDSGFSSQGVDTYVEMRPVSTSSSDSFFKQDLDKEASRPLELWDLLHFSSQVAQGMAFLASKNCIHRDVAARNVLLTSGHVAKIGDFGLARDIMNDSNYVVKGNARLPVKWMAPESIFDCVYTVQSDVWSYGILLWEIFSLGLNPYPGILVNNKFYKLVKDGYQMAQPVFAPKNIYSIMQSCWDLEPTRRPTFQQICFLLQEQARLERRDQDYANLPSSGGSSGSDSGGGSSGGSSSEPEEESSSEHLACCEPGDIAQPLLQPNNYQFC
Method: Studies were performed in a murine LPS-induced neuroinflammation model under the conditions described previously. The percentage of the standardized uptake value (%SUV) uptake in the whole brain at […] after injection was corrected for blood radioactivity as SUV^whole brain/SUV^blood = SUV ratio (SUVR) (Fig. 1).
Fig. 1 Brain uptake of CSF1R radiotracer [^11C]1 in control mice (Base); LPS-treated mice (LPS base); and LPS-treated mice, blocking with CSF1R inhibitor (LPS block). The time point was 45 min after the radiotracer injection. The LPS treatment was IP, 10 mg/kg. Data are mean SUVR ± SD (n = 6). […] Statistical analysis: comparison of LPS-baseline versus control or LPS-block, ANOVA
Brain regional distribution of [^11C]1 in neuroinflammation mouse model: The study was performed in the murine LPS-induced neuroinflammation model described previously. […] The LPS (O111:B4, Calbiochem, San Diego, CA) solution in sterile saline (10 mg/kg, 0.2 mL) was administered intraperitoneally and the radiotracer study was performed on the 3rd day thereafter.
The animals were injected IV with 3.7 MBq (0.1 mCi) [^11C]1 [specific radioactivity = 444 GBq/µmol (12 Ci/µmol)] and sacrificed by cervical dislocation at 45 min after the radiotracer injection. The whole brains were removed, dissected on ice and blood samples (0.2-0.5 cc) were taken from heartand their radioactivity content was determined in a γ-counter LKB/Wallac CompuGamma. The outcome variables were calculated as SUVR = SUVwhole brain/SUVblood.

CSF1R [2] = tested on: CSF1R; design: method as in PMID 18242992; conditions: read-out: CSF1R functional potency IC50; cited from earlier work
[3] = Ex vivo regional brain distribution of [^11C]1 in control CD1 mice; design: species or system CD1 male mice; conditions: for Regional brain uptake: mean ± SD, n = 3
Method: The regional brain uptake of [^11C]1 in control CD1 male mice at three time points after injection of radiotracer is shown in Table 2. […] The uptake in other regions studied here was lower.
Brain regional distribution of [^11C]1 in control mice, baseline: All animal studies were conducted within the guidelines of approved IACUC protocols for mice and non-human primates. Male CD1 mice of four to eight weeks of age, weighing 24-29 g from Charles River Laboratories (Wilmington, MA) were used. […] The brains were removed and dissected on ice. The brain regions (cerebellum, hippocampus, frontal cortex, brain stem and rest of brain) were weighed and their radioactivity content was determined in a γ-counter LKB/Wallac 1283 CompuGamma CS (Bridgeport, CT). The percentage of injected dose per gram of tissue %ID/g tiss was calculated (Table 2).

[4] = Dynamic PET brain uptake in control baboon; format: in vivo, Papio anubis baboon; conditions: peak at 30 min after injection
Method: Dynamic PET scan was performed on a male baboon (Papio anubis, 27 kg) using the High Resolution Research Tomograph (CPS Innovations, Knoxville, TN) with an IV injection of 751 MBq (20.3 mCi) [^11C]1 [specific radioactivity: 518 TBq/mmol (14,000 Ci/mmol)]. PET imaging and data analysis and radiometabolite analysis of baboon arterial blood are described in detail in the SI Appendix.
PET images were acquired using a CPS/CTI High Resolution Research Tomograph (HRRT), which has an axial resolution (FWHM) of 2.4 mm, and in plane resolution of 2.4–2.8 mm. The animal was anesthetized and handled as described previously. The 90 min PET data were binned into […]: four 15-s, four 30-s, three 1-min, two 2-min, five 4-min, and twelve 5-min frames. Images were reconstructed using the iterative ordered subset expectation maximization (OS-EM) algorithm (with six iterations and 16 subsets) with correction for radioactive decay, deadtime, attenuation, scatter and randoms. The reconstructed image space consisted of cubic voxels, each 1.22 mm^3 in size, and spanning dimensions of 31 cm × 31 cm (transaxially) and 25 cm (axially).
The image analysis and kinetic modeling were performed using software PMOD (v3.7, PMOD Technologies Ltd, Zurich, Switzerland). Dynamic PET images were first co-registered with the MRI images. […]

[5] = Radiometabolite analysis of baboon blood; format: in vivo, Papio anubis baboon; conditions: 90 min post injection
Method: (75%) at 90 min post injection.
Samples were centrifuged at 1200×g and the radioactivity in plasma were measured with a cross-calibrated gamma counter. Selected plasma samples (5, 10, 20, 30, 60, and 90 min) were analyzed with high performance liquid chromatography (HPLC) for radioactive metabolites in plasma as described above.

[6] = Radiochemical purity of formulated [^11C]1 after end-of-synthesis by analytical HPLC; format: physicochemical; conditions: within 90 min after the end-of-synthesis
Method: To a 1 mL V-vial, precursor, 4-cyano-N-(2-(4-methylpiperidin-1-yl)-4-(piperazin-1-yl)phenyl)-1H-pyrrole-2-carboxamide, 8 (1 mg) was added in solution of 0.2 mL of anhydrous DMF. [^11C]Methyl iodide, carried by a stream of helium, was trapped in the precursor solution. The reaction was heated at 80 °C for 3.5 min, then quenched with 0.2 mL of water. The crude reaction product was purified by reverse-phase high performance liquid chromatography (HPLC) at a flow rate of 12 mL/min. The radiolabelled product [^11C]1 (tR = 7–8 min) was fully separated from the precursor (tR = 2.7 min) and collected in a solution of 0.3 g sodium ascorbate in 50 mL water. The aqueous solution was transferred through an activated Waters Oasis Sep-Pak Light cartridge (Milford, MA). After washing the cartridge with 10 mL saline, the product was eluted with 1 mL of ethanol through a […] sterile filter into a sterile, pyrogen-free vial containing 4 mL saline, and 10 mL of 0.9% saline was added through the same filter. The final product, [^11C]1, was analyzed by analytical HPLC to determine the radiochemical purity (> 99%) and specific radioactivity (15–23 Ci/µmol).
HPLC conditions for [^11C]1. Preparative HPLC: Column, XBridge C18, 10 × 250 mm (Waters, Milford, MA). Mobile phase: 39%:61% acetonitrile: triethylamine-phosphate buffer, pH 7.2. Flow rate: 12 mL/min, retention time 8 min. […]

[7] = design: method as in PMID 30635412; conditions: baboon brain, baseline PET; cited from earlier work
[8] = design: method as in PMID 30635412; conditions: baboon blood, 90 min post injection; cited from earlier work

Compound: CN1CCN(c2ccc(NC(=O)c3ccc(C#N)o3)c(N3CCCCC3)c2)CC1 [CPPC, 5-cyano-N-(4-(4-methylpiperazin-1-yl)-2-(piperidin-1-yl)phenyl)furan-2-carboxamide, reference compound]
Effect of blocking on [^11C]1 brain uptake (SUVR) (CSF1R [1]; CPPC 1 mg/kg IP 5 min before [^11C]1, LPS-treated mice): significantly decreased the uptake in the LPS-treated mice to the control level | IC50 (CSF1R [2]): […]

Regional brain uptake ([3]; brain stem, 2 min): 1.78 ± 0.48 %ID/g tissue | Regional brain uptake ([3]; brain stem, 30 min): 1.32 ± 0.10 %ID/g tissue | Regional brain uptake ([3]; brain stem, 60 min): 0.92 ± 0.11 %ID/g tissue | Regional brain uptake ([3]; cerebellum, 2 min): 2.08 ± 0.39 %ID/g tissue | Regional brain uptake ([3]; cerebellum, 30 min): 1.39 ± 0.04 %ID/g tissue | Regional brain uptake ([3]; cerebellum, 60 min): 0.95 ± 0.09 %ID/g tissue | Regional brain uptake ([3]; frontal cortex, 30 min): 1.49 ± 0.17 %ID/g tissue | Regional brain uptake ([3]; frontal cortex, 60 min): 1.13 ± 0.08 %ID/g tissue | Regional brain uptake ([3]; hippocampus, 2 min): 1.63 ± 0.31 %ID/g tissue | Regional brain uptake ([3]; hippocampus, 30 min): 1.32 ± 0.10 %ID/g tissue | Regional brain uptake ([3]; hippocampus, 60 min): 1.01 ± 0.17 %ID/g tissue | Regional brain uptake ([3]; rest of brain, 2 min): 1.81 ± 0.34 %ID/g tissue | Regional brain uptake ([3]; rest of brain, 30 min): 1.31 ± 0.10 %ID/g tissue | Regional brain uptake ([3]; rest of brain, 60 min): 0.90 ± 0.06 %ID/g tissue | Total mouse brain uptake ([3]; total mouse brain): ~ 2 % ID/g tissue | Specific CSF1R binding (share of brain uptake) (CSF1R [1]; LPS-treated mice, brain): ~ 50% and 50% | Peak brain uptake [4]: 0.36 SUV | Metabolism rate [5]: 16% | Change of radiochemical purity of final product [6]: did not change
Compound: CC1CCN(c2cc(N3CCN([11CH3])CC3)ccc2NC(=O)c2cc(C#N)c[nH]2)CC1 [[^11C]1, 4-cyano-N-(4-(4-[^11CH3]methylpiperazin-1-yl)-2-(4-methylpiperidin-1-yl)phenyl)-1H-pyrrole-2-carboxamide]
Regional brain uptake ([3]; frontal cortex, 2 min after injection): 2.15 %ID/g tissue and 2.15 ± 0.44 %ID/g tissue | SUVR (SUV whole brain/SUV blood) in LPS-treated mice versus controls (CSF1R [1]; whole brain, 40 min after injection, n = 6): significantly greater in LPS-treated mice than in controls

Compound: [11CH3]N1CCN(c2ccc(NC(=O)c3ccc(C#N)o3)c(N3CCCCC3)c2)CC1 [[^11C]CPPC]
Brain uptake [7]: 3.5 SUV | Metabolism rate [8]: 75%
